Consider one molecule from US20050119285A1, “Treatment of neurological disorders related to rapid eye movement (REM) sleep disturbances with NPY Y5 receptor antagonists” (Pfizer Inc, priority 2003, published 2005).

This experiment has as its system adult, male Wistar rats. The experiment in a line: Sleep measurement by EEG in rats (in vivo sleep study). Details: species or system rat. As to conditions: for Maximal change in REM sleep: cumulative time in REM sleep compared to vehicle controls, first 24 hours after dose. As to the method:
Sleep measurement by EEG: For the EEG sleep measurements, adult, male Wistar rats were anesthetized and surgically implanted with a cranial implant for chronic electro-encephalogram (EEG) and electromyogram (EMG) recording. At least three weeks were allowed for the animal to recover from surgery. Food and water were available ad libitum and the ambient temperature was 24±1° C. A 24-hr light-dark cycle (LD 12:12) was maintained throughout the study using fluorescent light. Light intensity averaged 35-40 lux at mid-level inside the cage. Animals were undisturbed for two days before and after each treatment. Sleep and wakefulness were determined using a microcomputer-based sleep-wake and physiological monitoring system. The system monitored amplified EEG (×10,000, bandpass 1-30 Hz; digitization rate 100 Hz, integrated EMG (bandpass 10-100 Hz, RMS integration), and telemetered body temperature and non-specific locomotor activity and drinking activity, from 16 rodents simultaneously. Arousal states were classified on-line as NREM sleep, REM sleep, wake, or theta-domihated wake every 10 seconds using EEG period and amplitude feature extraction and ranked membership algorithms. Individually taught EEG-arousal-state templates and EMG criteria differentiated REM sleep from theta-dominated wake. Drinking and locomotor activity were automatically recorded as discrete events every 10 seconds, and body temperature was recorded each minute. Data quality was assured by frequent on-line inspection of the EEG and EMG signals.
Drug Treatment: A NPY Y1 receptor antagonist was administered at 5, 10, 20 or 40 mg/kg in 0.25% methylcellulose vehicle. The NPY Y5 receptor antagonist of Formula la was administered at 5, 10 or 40 mg/kg and the NPY Y5 receptor antagonist of Formula IIa was administered at 10 and 40 mg/kg (both in 32% hydroxypropyl-betacyclodextrin vehicle). Drugs and vehicles were administered by oral gavage. Rats were randomly assigned to receive treatments in […]. The recording duration for the bioassay was 30 hours before and after treatment. At least 7 days “washout” elapsed between each treatment.
Variables recorded by EEG sleep-wake variables included NREM, REM, total sleep, and duration of sleep and wake bouts and were defined and computed as follows: • Wakefulness, NREM sleep, and REM sleep: percent time in state per hour or per 5 minute bin. • Cumulation of total sleep, NREM sleep, REM sleep, locomotor activity, and drink activity: post-treatment accumulated change over baseline. Change—from-baseline scores were computed by subtracting from the post-treatment value the baseline value at the corresponding circadian time. The change-from-baseline scores were then cumulated in hourly bins, and these values were plotted. • Sleep, wakefulness, and REM sleep bouts: The longest bout and the average bout of uninterrupted sleep each hour, measured in minutes. “Interruption” is defined as 3 or more consecutive 10 sec epochs of wakefulness. An analogous quantification is carried out for bouts of wakefulness and REM sleep. […] Pre-clinical measures of sleep bout length are also strong predictors of soporific efficacy in humans. • Locomotor activity: counts per hour or counts per 5 minute bin. • Locomotor activity intensity: locomotor activity counts per minute of EEG-defined wakefulness. This variate allows an assessment of locomotor activity that is independent of the amount of time awake, thus, it may be used to quantify the specificity of a wake- or sleep-promoting effect (Edgar et al. 1997).
Statistical Analysis—Mixed Model: Treatment effects were analyzed by a mixed model for repeated measures data. Mixed models were performed comparing each active-treatment with vehicle. For all models analysis was based on post-treatment hours with each hour adjusted for the corresponding baseline hour. Adjusting for baseline takes into account any differences between groups during baseline. […]

The mark [1] stands for this setting: 5, 10 and 40 mg/kg, oral gavage.

Marks after values point to notes of the source that are not given here.

For `O=C1OC2(CCN(C(=O)Nc3ccc(C(F)(F)F)cn3)CC2)c2ccccc21` [Formula Ia], under setting [1], the “Effect on NREM sleep” value is listed as “increased NPEM sleep”, the “Effect on REM sleep” value is “significantly reduced REM sleep in a dose-related manner” and the “Effect on sleep continuity (sleep bout length)” value is given as “increased”. Besides, where the note is “after 40 mg/kg, oral gavage”, the “Persistence of REM sleep inhibiting and NREM sleep promoting effects” value is reported as “at least 48 hours”; the “REM sleep inhibiting and NREM sleep promoting effects still observed after dosing” value is recorded as at least 4.5 days. In addition, the “Maximal change in REM sleep” value (dose 5 (mg/kg), oral gavage) was −23.8* minutes. Further, the “Maximal change in REM sleep” value (dose 10 (mg/kg), oral gavage) is −42.6* minutes. The “Maximal change in REM sleep” value (dose 40 (mg/kg), oral gavage) is −74.4* minutes. Besides, the “Effect on sleep (REM and NREM) in a laboratory animal” value (summary statement, no dose given) was “affected sleep (REM and NREM)”.
